Measured values reported in US6297230A, “Cyanoaziridines for treating cancer” (priority 2000, dated 2001).
Values after ≈ are worked out from the molar mass of the structure shown. Where two headings read alike, the source gives them in different places.

What was measured:
[1] = tested on: OVCAR-3 ovarian carcinoma cells; test: In vitro antitumor activity, OVCAR-3 ovarian; type: cell-based, human; conditions: OVCAR3 ovarian
Source text: (§1) 1) in vitro tumor cell viability assays using MTT and SRB dye reaction endpoints.
(§2) Sulforhodamine B (SRB) Assay for Adherent Tumor Cells
(§3) Sulforhodamine B (SRB) is a protein binding aminoxanthene dye with two sulfonic acid groups. (Lillie, R. D., H. J. Conn's Biological Stains, 9th Ed., Baltimore; Williams & Wilkins, 1977.) It quantitates whole cell protein content by the intensity of dye staining and relates this to the number of viable cells. […] The SRB assay is used for cells which normally adhere to surfaces (in this case plastic culture flasks or petri dishes) as part of their requirement for growth and division in vitro. The SRB assay is currently used by the National Cancer Institute in the anticancer drug screening program. (Skehan, et al., J Natl Cancer Inst 82:1107-1112, 1990; Rubinstein, et al., J Natl Cancer Inst 82:1113-1118, 1990.) Methodologic comparisons have shown that SRB results are linear for the number of tumor cells over a 100-fold range, and for protein content determined by a modified Lowry method or Standard Bradford (Bradford, M., Anal Biochem 72:248-254, 1976) methods. […] (Lillie, R. D., H. J. Conn's Biological Stains, 9th Ed., Baltimore; Williams & Wilkins, 1977.)
(§4) Cell cultures of 10^3 -10^7 cells growing in 96-well plastic microtiter plates are fixed with 50% trichloroacetic acid (TCA) for 30 minutes at 4° C. The cells are then stained with 0.4% (w/v) sulforhodamine B (SRB) dissolved in 1% acetic acid. Unbound dye is removed by 4 washes with 1% acetic acid, and protein-bound dye is extracted with 10 mM unbuffered Tris® base [tris(hydroxymethyl)aminomethane]. The optical density (OD) of this extracted solution is measured at […] in a microtiter plate ultraviolet absorbance detector. Cell viability is expressed as percent of control by dividing the optical densities and multiplying the result by 100.
(§5) Microculture Tetrazolium (MTT) Assay for Tumor Cells
(§6) Tumors are disaggregated into single cell suspensions using mechanical, hypoosmotic, and/or enzymatic (trypsin) methods. The cells are plated at a concentration of 3-5×10^4 per […] well into plastic 96-well plates. Growth medium containing 5-10% (vol/vol) heat-inactivated fetal bovine serum and penicillin/streptomycin (both […]) are added prior to incubation at 37° C. for 6 days. Afterwards the medium containing the drug is removed, the cells are centrifuged in fresh medium or phosphate-buffered saline (pH 7.4). A tetrazolium dye, […]-2,5-diphenyl tetrazolium (MTT), is then added. (Mossman, T., J Immunol 65:55-63, 1983.) This dye forms a colored formazan product upon activation by mitochondrial reductases in viable cells. Typically, the formazan product is solubilized in acid-propanol or DMSO. The intensity of the color is proportional to viable cell numbers and this is quantitated by spectrophotometric absorbance at 570 nm on a micro ELISA plate reader. The results are calibrated in % control absorbance from untreated tumor cells. (Alley, et al., Cancer Res 48:589-601, 1988.)
(§7) Table 3 gives the potencies of the new aziridine-1-carboxamides in a panel of human and murine tumor cells in culture. The tumor cell lines in this table are selected to represent a range of histological and growth phenotypes. Their characteristics are described below.
5.0 Human OVCAR-3 Ovarian Carcinoma was originally isolated by Hamilton, et al. Experimental model systems of ovarian cancer; applications to the design and evaluation of new treatment approaches. Seminar in Onocology, 11:285-298, 1984, from a patient with progressive adenocarcinoma of the ovary. This patient had relapsed after receiving a combination chemotherapy regimen containing cyclophosphamide, doxorubicin and cisplatin. […] It is also one of the standard human tumor cell lines used for screening new anticancer agents at the NCI. (Alley, et al., Cancer Res 48:589-601, 1988.)

[2] = tested on: A-375 malignant melanoma cells; test: In vitro antitumor activity, A-375 melanoma; type: cell-based, human
Source text: as §1, §2, §3, §4, §5, §6, §7
4.0 The Human A-375 Malignant Melanoma Cell Line was also developed by Girard, et al. (Girard, et al., J Natl Cancer Inst 51(5):1417-1423, 1973) from a human with advanced melanoma. The modal chromosome number is 67 and it has a low plating (colony forming) efficiency of 0.7% when grown on agar. These cells also form rapidly growing tumors when injected subcutaneously into immunodeficient athymic (nu/nu) mice. (Girard, et al., J Natl Cancer Inst 51(5):1417-1423, 1973.) These cells are also used in the NCI drug screening panel. (Skehan, et al., J Natl Cancer Inst 82:1107-1112, 1990.)

[3] = tested on: A-549 lung cancer cells; test: In vitro antitumor activity, A-549 lung; type: cell-based; conditions: Homo sapiens, A549
Source text: as §1, §2, §3, §4, §5, §6, §7
3.0 A-549 Human Lung Cancer is an adenocarcinoma type of non-small cell lung cancer (NSCLC). It was established by Girard, et al. from a fresh tumor specimen obtained from a person with advanced lung cancer. (Girard, et al., J Natl Cancer Inst 51(5):1417-1423, 1973.) It has 5.6% plating efficiency (colony formation) on agar-coated plates, 66 modal chromosome number and grows rapidly when injected subcutaneously, forming acinar pattern tumors in immunodeficient mice. […]

[4] = tested on: MCF-7/D40 cells; test: In vitro antitumor activity, MCF-7/D40; type: cell-based; conditions: Homo sapiens, MCF7; MCF-7 breast, D40 (40-fold doxorubicin resistant)
Source text: as §1, §2, §3, §4, §5, §6, §7
(§8) 1.3 MCF-7/D40 and MCF-7/MITOX cell lines were developed by chronic exposure in vitro to increasing concentrations of the DNA-intercalating antitumor agents doxorubicin and mitoxantrone, respectively. […] The MCF-7/D40 cells express the cell membrane efflux pump, P-glycoprotein and are over 40-fold resistant to doxorubicin, mitoxantrone and the vinca alkaloids, vinblastine and vincristine.

[5] = tested on: MCF-7/MITOX cells; test: In vitro antitumor activity, MCF-7/MITOX; type: cell-based; conditions: Homo sapiens, MCF7/Mitox; MCF-7 breast, mitoxantrone resistant
Source text: as §1, §2, §3, §4, §5, §6, §7, §8

[6] = tested on: WiDr colon cancer cells; test: In vitro antitumor activity, WiDr colon; type: cell-based; conditions: Homo sapiens
Source text: as §1, §2, §3, §4, §5, §6, §7
2.1 WiDr: The adenocarcinoma cell line WiDr was originally isolated by Noguchi, et al. from a primary colon tumor specimen from a patient with advanced colon carcinoma. (Noguchi, et al, In Vitro 35(6):401-407, 1979.) The WiDr MITOX cell line was developed for mitoxantrone resistance by growth in serially elevated concentration of mitoxantrone. […] (Dalton, et al., Cancer Res 48:1882-1888, 1988.)

[7] = tested on: MCF-7 breast cancer cells (sens.); test: In vitro antitumor activity, MCF-7 breast (sensitive); type: cell-based; conditions: Homo sapiens, MCF7
Source text: as §1, §2, §3, §4, §5, §6, §7
1.1 MCF-7 Breast Cancer: The parental (sensitive) MCF-7 breast cancer is an estrogen-dependent adenocarcinoma originally derived from a pleural effusion in a person with advanced metastatic breast cancer. (Soule, et al., J Natl Cancer Inst 51:1409-1416, 1973.)

[8] = tested on: tumor cell line panel; test: Panel of tumor cell lines in vitro; type: cell-based, human and murine; conditions: all 3 MCF-7 breast lines and parental WiDr colon
Method: as §1, §2, §4, §6
Table 3 gives the potencies of the new aziridine-1-carboxamides in a panel of human and murine tumor cells in culture. […]

[9] = Homo sapiens, OVCAR-3, read-out: IC50

Structure (SMILES) | IC50 [1] | IC50 [2] | IC50 [1, 9] | IC50 ([2]; Homo sapiens, read-out: IC50) | IC50 [3] | IC50 [4] | IC50 [5] | IC50 [6] | IC50 [7] | Tumor cell sensitivity in solid tumor lines [8]
CC(=O)Oc1ccccc1NC(=O)N1CC1C#N (stereo not drawn) [AMP 424, 2-Cyanoaziridine-1-[N-(2-acetoxyphenyl)]carboxamide] | > 10 µg/mL | > 10 µg/mL |  |  |  |  |  |  |  | 
CCOC(=O)c1ccc(NC(=O)N2CC2C#N)cc1 (stereo not drawn) [AMP 419, 2-Cyanoaziridine-1-[N-(4-ethoxycarbonylphenyl)]carboxamide] |  |  | 1.5 µg/mL | 2 µg/mL (≈ 7.71 µM) | 1.5 µg/mL (≈ 5.79 µM) |  |  |  |  | 
CCOC(=O)CNC(=O)N1CC1C#N (stereo not drawn) [AMP 420, 2-Cyanoaziridine-1-[N-(ethoxycarbonyl)methyl]carboxamide] |  |  | 10 µg/mL | 10 µg/mL (≈ 50.7 µM) |  |  |  |  |  | 
N#CC1CN1C(=O)Nc1ccc(S(N)(=O)=O)cc1 (stereo not drawn) [AMP 422, 2-Cyanoaziridine-1-[N-(4-sulfamylphenyl)]carboxamide] |  |  | 50 µg/mL | 50 µg/mL (≈ 188 µM) |  |  |  |  |  | 
N#CC1CN1C(=O)NCc1ccccc1 (stereo not drawn) [AMP 412, 2-Cyanoaziridine-1-(N-benzyl)carboxamide] |  |  | 1 µg/mL | 2.2 µg/mL (≈ 10.9 µM) | 1.5 µg/mL (≈ 7.45 µM) | 1.2 µg/mL (≈ 5.96 µM) | 0.7 µg/mL (≈ 3.48 µM) | 1.1 µg/mL (≈ 5.47 µM) | 1.5 µg/mL (≈ 7.45 µM) | 
N#CC1CN1C(=O)Nc1ccc(F)cc1 (stereo not drawn) [AMP 415, 2-Cyanoaziridine-1-[N-(4-fluorophenyl)]carboxamide] |  |  | 1.2 µg/mL | 0.7 µg/mL (≈ 3.41 µM) | 1.3 µg/mL (≈ 6.34 µM) | 0.5 µg/mL (≈ 2.44 µM) | 0.6 µg/mL (≈ 2.92 µM) | 0.4 µg/mL (≈ 1.95 µM) | 0.4 µg/mL (≈ 1.95 µM) | tumor cell sensitivity increased
CNC(=O)N1CC1C#N (stereo not drawn) [AMP 403, 2-Cyanoaziridine-1-(N-methyl)carboxamide] |  |  | 1.7 µg/mL | 2.1 µg/mL (≈ 16.8 µM) |  | 2.1 µg/mL (≈ 16.8 µM) | 2.3 µg/mL (≈ 18.4 µM) |  | 3.3 µg/mL (≈ 26.4 µM) | 
CCNC(=O)N1CC1C#N (stereo not drawn) [AMP 406, 2-Cyanoaziridine-1-(N-ethyl)carboxamide] |  |  | 2 µg/mL | 5 µg/mL (≈ 35.9 µM) | 2.5 µg/mL (≈ 18 µM) | 2.8 µg/mL (≈ 20.1 µM) | 1.4 µg/mL (≈ 10.1 µM) | 5.6 µg/mL (≈ 40.2 µM) | 4 µg/mL (≈ 28.7 µM) | 
CC(C)(C)NC(=O)N1CC1C#N (stereo not drawn) [AMP 410, 2-Cyanoaziridine-1-(N-t-butyl)carboxamide] |  |  | 31.1 µg/mL | 69.9 µg/mL (≈ 418 µM) | 33 µg/mL (≈ 197 µM) | 31.8 µg/mL (≈ 190 µM) | 20.1 µg/mL (≈ 120 µM) | 30 µg/mL (≈ 179 µM) | > 10 µg/mL | 
CCCCNC(=O)N1CC1C#N (stereo not drawn) [AMP 414, 2-Cyanoaziridine-1-(N-butyl)carboxamide] |  |  | 2 µg/mL | 2.5 µg/mL (≈ 15 µM) |  |  |  |  |  | 
N#CC1CN1C(=O)NC1CCCCC1 (stereo not drawn) [AMP 413, 2-Cyanoaziridine-1-(N-cyclohexyl)carboxamide] |  |  | 5.9 µg/mL | 6.7 µg/mL (≈ 34.7 µM) | 1.9 µg/mL (≈ 9.83 µM) | 1.7 µg/mL (≈ 8.8 µM) | 1.9 µg/mL (≈ 9.83 µM) | 0.4 µg/mL (≈ 2.07 µM) | 2.5 µg/mL (≈ 12.9 µM) | 
CC(=O)c1cccc(NC(=O)N2CC2C#N)c1 (stereo not drawn) [AMP 425, 2-Cyanoaziridine-1-[N-(3-acetylphenyl)]carboxamide] |  |  | 2.23 µg/mL | 1.8 µg/mL (≈ 7.85 µM) |  |  |  |  |  | 
N#CC1CN1C(=O)Nc1cccc2ccccc12 (stereo not drawn) [AMP 423, 2-Cyanoaziridine-1-[N-(1-naphthyl)]carboxamide] |  |  | 1.4 µg/mL | 1 µg/mL (≈ 4.21 µM) |  |  |  |  |  | 
N#CC1CN1C(=O)Nc1ccc([N+](=O)[O-])cc1 (stereo not drawn) [AMP 417, 2-Cyanoaziridine-1-[N-(4-nitrophenyl)]carboxamide] |  |  | 1.5 µg/mL | 0.9 µg/mL (≈ 3.88 µM) |  |  |  |  |  | 
N#CC1CN1C(=O)Nc1cccnc1 (stereo not drawn) [AMP 421, 2-Cyanoaziridine-1-[N-(3-pyridyl)]carboxamide] |  |  | 1.9 µg/mL | 2.3 µg/mL (≈ 12.2 µM) |  |  |  |  |  | 
N#CC1CN1C(=O)Nc1ccc(Cl)cc1Cl (stereo not drawn) [AMP 407, 2-Cyanoaziridine-1-[N-(2,4-dichlorophenyl)]carboxamide] |  |  | 0.6 µg/mL | 2 µg/mL (≈ 7.81 µM) |  |  |  |  |  | 
N#CC1CN1C(=O)Nc1ccc(C(F)(F)F)cc1 (stereo not drawn) [AMP 416, 2-Cyanoaziridine-1-[N-(4-trifluorophenyl)]carboxamide] |  |  | 1.5 µg/mL | 3 µg/mL (≈ 11.8 µM) | 1.1 µg/mL (≈ 4.31 µM) | 0.4 µg/mL (≈ 1.57 µM) | 0.3 µg/mL (≈ 1.18 µM) | 0.3 µg/mL (≈ 1.18 µM) | 0.4 µg/mL (≈ 1.57 µM) | tumor cell sensitivity increased
N#CC1CN1C(=O)Nc1ccccc1 (stereo not drawn) [AMP 404, 2-Cyanoaziridine-1-(N-phenyl)carboxamide] |  |  | 1.3 µg/mL | 2.1 µg/mL (≈ 11.2 µM) | 1.6 µg/mL (≈ 8.55 µM) | 0.5 µg/mL (≈ 2.67 µM) | 0.8 µg/mL (≈ 4.27 µM) | 0.9 µg/mL (≈ 4.81 µM) | 0.5 µg/mL (≈ 2.67 µM) | tumor cell sensitivity increased
